How the values were obtained:
[1] = system: Tyrosine-protein kinase Blk (Homo sapiens), P51451 [UNDEFINED MUTATION]; assay: Inhibition of recombinant full length human BLK M287V mutant assessed as residual activity at 1 uM using poly(Glu, Tyr) 4:1 as substrate incubated for 40 mins in presence of [gamma-33ATP] by scintillation counting based radiometry assay relative to control
[2] = biological target: CDK4/Cyclin D3 (Homo sapiens) (UniProt P11802+P30281); assay: Inhibition of recombinant full length human CDK4/CyclinD3 assessed as residual activity at 1 uM using Rb fragment as substrate incubated for 40 mins in presence of [gamma-33ATP] by scintillation counting based radiometry assay relative to control; type: protein-complex assay
[3] = biological target: CDK12/Cyclin K (Homo sapiens) (UniProt O75909+Q9NYV4); assay: Inhibition of recombinant full length human CDK12/cyclinK assessed as residual activity at 1 uM using RSRSRSRSRSRSRSR as substrate incubated for 120 mins in presence of [gamma-33ATP] by scintillation counting based radiometry assay relative to control; type: protein-complex assay
[4] = system: Eukaryotic elongation factor 2 kinase (Homo sapiens), O00418 [H23R]; assay: Inhibition of recombinant human eEF-2K H23R mutant (2 to end residues) assessed as residual activity at 1 uM using RKKFGESEKTKTKEFL as substrate at 40 mins in presence of [gamma-33ATP] by scintillation counting based radiometry assay relative to control
[5] = biological target: Ephrin type-A receptor 7 (Homo sapiens) (UniProt Q15375); assay: Inhibition of recombinant human EphA7 (613 to 909 residues) assessed as residual activity at 1 uM using KTFCGTPEYLAPEVRREPRILSEEEQEMFRDFDYIADWC as substrate at 40 mins in presence of [gamma-33ATP] by scintillation counting based radiometry assay relative to control
[6] = biological target: Mitogen-activated protein kinase kinase kinase kinase 2 (Homo sapiens) (UniProt Q12851); assay: Inhibition of recombinant human GCK (1 to 473 residues) assessed as residual activity at 1 uM using myelin basic protein as substrate at 40 mins in presence of [gamma-33ATP] by scintillation counting based radiometry assay relative to control
[7] = biological target: Insulin receptor (Homo sapiens) (UniProt P06213); assay: Inhibition of human IR (1005 to 1310 residues) assessed as residual activity at 1 uM using KKSRGDYMTMQIG as substrate after 40 mins by [gamma-33ATP] radiometric assay relative to control
[8] = biological target: LIM domain kinase 2 (Homo sapiens) (UniProt P53671); assay: Inhibition of recombinant human LIMK2 assessed as residual activity after 1 uM by radiometry assay relative to control
[9] = biological target: Mitogen-activated protein kinase kinase kinase kinase 4 (Homo sapiens) (UniProt O95819); assay: Inhibition of recombinant human MAP4K4 (1 to 328 residues) assessed as residual activity at 1 uM using RLGRDKYKTLRQIRQ as substrate incubated for 40 mins in presence of [gamma-33ATP by scintillation counting based radiometry assay relative to control
[10] = biological target: Serine/threonine-protein kinase Nek7 (Homo sapiens) (UniProt Q8TDX7); assay: Inhibition of recombinant human NEK7 (2 to end residues) assessed as residual activity at 1 uM using FLAKSFGSPNRAYKK as substrate measured after 40 mins in presence of [gamma33P]ATP by scintillation counting method relative to control
[11] = biological target: Serine/threonine-protein kinase PAK 6 (Homo sapiens) (UniProt Q9NQU5); assay: Inhibition of recombinant human PAK6 (382 to end residues) assessed as residual activity at 1 uM using RRRLSFAEPG as substrate measured after 40 mins in presence of [gamma33P]ATP by scintillation counting method relative to control
[12] = biological target: Mitogen-activated protein kinase 11 (Homo sapiens) (UniProt Q15759); assay: Inhibition of recombinant human full length SAPK2b assessed as residual activity at 1 uM using myelin basic protein as substrate measured after 40 mins in presence of [gamma33P]ATP by scintillation counting method relative to control
[13] = biological target: Mitogen-activated protein kinase 12 (Homo sapiens) (UniProt P53778); assay: Inhibition of recombinant human full length SAPK3 assessed as residual activity at 1 uM using myelin basic protein as substrate measured after 40 mins in presence of [gamma33P]ATP by scintillation counting method relative to control
[14] = biological target: Serine/threonine-protein kinase SBK1 (Homo sapiens) (UniProt Q52WX2); assay: Inhibition of recombinant full-length human SBK1 assessed as residual activity at 1 uM using KKLRRTLSVA as substrate measured after 120 mins in presence of [gamma33P]ATP by scintillation counting method relative to control
[15] = biological target: Serine/threonine-protein kinase SIK3 (Homo sapiens) (UniProt Q9Y2K2); assay: Inhibition of recombinant human SIK3 (1 to 307 residues) assessed as residual activity at 1 uM using KKKVSRSGLYRSPSMPENLNRPR as substrate measured after 40 mins in presence of [gamma33P]ATP by scintillation counting method relative to control
[16] = biological target: Proto-oncogene tyrosine-protein kinase Src (Homo sapiens) (UniProt P12931); assay: Inhibition of human Src (1 to 530 residues) assessed as residual activity at 1 uM using GGEEEEYFELVKKKK as substrate measured after 40 mins in presence of [gamma33P]ATP by scintillation counting method relative to control
[17] = biological target: SRSF protein kinase 2 (Homo sapiens) (UniProt P78362); assay: Inhibition of human SRPK2 (46 to end residues) assessed as residual activity at 1 uM using RSRSRSRSRSRSRSR as substrate measured after 40 mins in presence of [gamma33P]ATP by scintillation counting method relative to control
[18] = biological target: Serine/threonine-protein kinase tousled-like 2 (Homo sapiens) (UniProt Q86UE8); assay: Inhibition of human TLK2 (387 to end residues) assessed as residual activity at 1 uM using casein as substrate measured after 40 mins in presence of [gamma33P]ATP by scintillation counting method relative to control
[19] = biological target: Serine/threonine-protein kinase ULK2 (Homo sapiens) (UniProt Q8IYT8); assay: Inhibition of human ULK2 (1 to 306 residues) assessed as residual activity at 1 uM using casein as substrate measured after 40 mins in presence of [gamma33P]ATP by scintillation counting method relative to control
[20] = biological target: Phosphatidylinositol 5-phosphate 4-kinase type-2 alpha (Homo sapiens) (UniProt P48426); assay: Inhibition of recombinant full-length human PIP4K2alpha at 1 uM assessed as residual activity at 1 uM using phosphatidylinositol 5-phosphate as substrate measured after 40 mins by HTRF assay
[21] = system: Casein kinase II subunit alpha' (CSNK2A2); assay: Inhibition of recombinant full length human CK2alpha2 assessed as residual activity at 1 uM using RRRDDDSDDD as substrate incubated 40 mins in presence of [gamma-33ATP] by scintillation counting based radiometry assay relative to control

Sequence of SRSF protein kinase 2 (Homo sapiens) (P78362 whole entry, looked up): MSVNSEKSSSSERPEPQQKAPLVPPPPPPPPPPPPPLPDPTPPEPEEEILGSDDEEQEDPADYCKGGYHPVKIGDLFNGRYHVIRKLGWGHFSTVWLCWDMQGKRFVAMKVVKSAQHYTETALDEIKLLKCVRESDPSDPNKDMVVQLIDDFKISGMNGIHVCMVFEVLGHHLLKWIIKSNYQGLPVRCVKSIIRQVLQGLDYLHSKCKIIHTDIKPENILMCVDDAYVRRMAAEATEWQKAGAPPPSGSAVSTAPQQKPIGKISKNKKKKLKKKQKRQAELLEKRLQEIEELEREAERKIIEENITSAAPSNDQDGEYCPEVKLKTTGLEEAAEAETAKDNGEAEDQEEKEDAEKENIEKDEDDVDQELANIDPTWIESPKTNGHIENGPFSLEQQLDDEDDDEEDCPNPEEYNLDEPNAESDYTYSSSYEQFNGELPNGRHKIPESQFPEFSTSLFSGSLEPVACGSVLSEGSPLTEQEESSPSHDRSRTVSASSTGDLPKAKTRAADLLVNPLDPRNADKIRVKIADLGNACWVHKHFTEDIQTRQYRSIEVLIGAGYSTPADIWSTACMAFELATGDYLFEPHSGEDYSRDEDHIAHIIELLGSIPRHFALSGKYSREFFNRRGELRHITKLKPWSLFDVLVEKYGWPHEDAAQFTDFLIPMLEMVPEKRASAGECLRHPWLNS
Sequence of LIM domain kinase 2 (Homo sapiens) (P53671 whole entry, looked up, the tested form may be a part): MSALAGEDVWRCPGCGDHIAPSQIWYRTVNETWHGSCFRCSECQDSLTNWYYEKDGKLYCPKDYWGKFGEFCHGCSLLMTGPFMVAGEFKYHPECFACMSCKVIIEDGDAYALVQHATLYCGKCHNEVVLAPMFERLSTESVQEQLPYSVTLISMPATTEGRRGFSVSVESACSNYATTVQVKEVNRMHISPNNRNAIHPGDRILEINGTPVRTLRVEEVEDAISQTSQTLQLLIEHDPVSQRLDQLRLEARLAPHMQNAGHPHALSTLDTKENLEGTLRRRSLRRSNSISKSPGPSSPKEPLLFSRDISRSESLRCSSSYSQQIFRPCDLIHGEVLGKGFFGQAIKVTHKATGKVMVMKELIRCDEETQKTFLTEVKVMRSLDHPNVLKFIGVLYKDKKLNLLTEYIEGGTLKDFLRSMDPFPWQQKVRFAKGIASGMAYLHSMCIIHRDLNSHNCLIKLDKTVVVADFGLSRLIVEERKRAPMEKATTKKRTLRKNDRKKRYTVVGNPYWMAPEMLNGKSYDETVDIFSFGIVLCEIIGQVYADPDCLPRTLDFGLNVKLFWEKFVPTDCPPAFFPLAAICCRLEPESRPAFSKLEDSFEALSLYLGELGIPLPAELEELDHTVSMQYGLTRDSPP
Sequence of Eukaryotic elongation factor 2 kinase (Homo sapiens), O00418 [H23R] (O00418 whole entry H23R, the tested form may be a part): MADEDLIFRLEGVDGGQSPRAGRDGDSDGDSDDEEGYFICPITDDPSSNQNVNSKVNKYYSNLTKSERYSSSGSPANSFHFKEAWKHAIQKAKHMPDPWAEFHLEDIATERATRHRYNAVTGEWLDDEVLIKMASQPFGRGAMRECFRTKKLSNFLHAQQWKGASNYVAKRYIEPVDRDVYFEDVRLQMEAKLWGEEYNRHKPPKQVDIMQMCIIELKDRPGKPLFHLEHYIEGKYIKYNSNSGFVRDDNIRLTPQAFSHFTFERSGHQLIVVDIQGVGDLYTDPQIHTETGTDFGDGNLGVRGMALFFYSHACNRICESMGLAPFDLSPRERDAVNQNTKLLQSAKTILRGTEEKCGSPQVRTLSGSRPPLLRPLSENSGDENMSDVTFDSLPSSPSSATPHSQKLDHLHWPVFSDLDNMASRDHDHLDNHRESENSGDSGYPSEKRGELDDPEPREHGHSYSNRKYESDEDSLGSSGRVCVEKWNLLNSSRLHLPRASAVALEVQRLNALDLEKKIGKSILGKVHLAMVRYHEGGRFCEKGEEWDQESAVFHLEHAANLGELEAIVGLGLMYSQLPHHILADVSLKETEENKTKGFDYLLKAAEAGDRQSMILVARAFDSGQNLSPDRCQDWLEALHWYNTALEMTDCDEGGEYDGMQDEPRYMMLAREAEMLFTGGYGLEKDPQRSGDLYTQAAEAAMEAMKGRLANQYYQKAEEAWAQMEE
Sequence of Mitogen-activated protein kinase kinase kinase kinase 2 (Homo sapiens) (Q12851 whole entry, the tested form may be a part): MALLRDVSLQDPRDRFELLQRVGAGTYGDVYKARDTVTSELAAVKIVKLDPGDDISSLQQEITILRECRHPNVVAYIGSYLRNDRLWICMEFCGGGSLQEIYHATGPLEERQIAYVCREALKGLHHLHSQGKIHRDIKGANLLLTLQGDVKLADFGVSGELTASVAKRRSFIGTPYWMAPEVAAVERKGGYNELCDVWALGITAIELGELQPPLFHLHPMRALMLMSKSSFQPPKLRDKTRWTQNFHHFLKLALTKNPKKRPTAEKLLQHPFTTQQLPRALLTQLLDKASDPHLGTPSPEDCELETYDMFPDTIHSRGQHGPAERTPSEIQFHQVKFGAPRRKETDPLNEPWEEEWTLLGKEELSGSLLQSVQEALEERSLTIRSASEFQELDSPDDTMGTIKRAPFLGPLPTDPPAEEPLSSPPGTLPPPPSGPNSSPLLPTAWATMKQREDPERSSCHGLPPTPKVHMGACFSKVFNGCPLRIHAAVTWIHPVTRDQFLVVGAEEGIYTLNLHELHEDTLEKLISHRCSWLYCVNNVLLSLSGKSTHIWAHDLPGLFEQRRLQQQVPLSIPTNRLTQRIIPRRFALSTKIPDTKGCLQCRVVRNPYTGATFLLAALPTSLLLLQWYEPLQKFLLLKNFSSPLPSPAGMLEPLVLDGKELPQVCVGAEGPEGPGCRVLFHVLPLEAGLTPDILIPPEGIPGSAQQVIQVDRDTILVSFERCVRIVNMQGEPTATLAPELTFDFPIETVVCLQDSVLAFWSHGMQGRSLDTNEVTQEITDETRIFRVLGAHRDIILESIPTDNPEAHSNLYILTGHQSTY
Sequence of Phosphatidylinositol 5-phosphate 4-kinase type-2 alpha (Homo sapiens) (P48426 whole entry): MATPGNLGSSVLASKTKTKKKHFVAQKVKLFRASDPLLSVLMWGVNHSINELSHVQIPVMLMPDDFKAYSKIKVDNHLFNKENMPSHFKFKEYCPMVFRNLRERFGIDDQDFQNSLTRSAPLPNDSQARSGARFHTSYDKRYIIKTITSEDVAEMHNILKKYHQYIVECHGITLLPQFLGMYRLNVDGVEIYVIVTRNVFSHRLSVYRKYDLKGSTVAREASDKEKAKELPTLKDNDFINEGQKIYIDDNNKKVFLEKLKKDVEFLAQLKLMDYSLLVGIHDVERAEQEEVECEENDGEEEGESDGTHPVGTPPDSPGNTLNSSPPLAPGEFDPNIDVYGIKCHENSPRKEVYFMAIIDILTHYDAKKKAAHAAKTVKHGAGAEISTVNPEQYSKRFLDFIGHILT
Sequence of Insulin receptor (Homo sapiens) (P06213 28-758 limits assumed): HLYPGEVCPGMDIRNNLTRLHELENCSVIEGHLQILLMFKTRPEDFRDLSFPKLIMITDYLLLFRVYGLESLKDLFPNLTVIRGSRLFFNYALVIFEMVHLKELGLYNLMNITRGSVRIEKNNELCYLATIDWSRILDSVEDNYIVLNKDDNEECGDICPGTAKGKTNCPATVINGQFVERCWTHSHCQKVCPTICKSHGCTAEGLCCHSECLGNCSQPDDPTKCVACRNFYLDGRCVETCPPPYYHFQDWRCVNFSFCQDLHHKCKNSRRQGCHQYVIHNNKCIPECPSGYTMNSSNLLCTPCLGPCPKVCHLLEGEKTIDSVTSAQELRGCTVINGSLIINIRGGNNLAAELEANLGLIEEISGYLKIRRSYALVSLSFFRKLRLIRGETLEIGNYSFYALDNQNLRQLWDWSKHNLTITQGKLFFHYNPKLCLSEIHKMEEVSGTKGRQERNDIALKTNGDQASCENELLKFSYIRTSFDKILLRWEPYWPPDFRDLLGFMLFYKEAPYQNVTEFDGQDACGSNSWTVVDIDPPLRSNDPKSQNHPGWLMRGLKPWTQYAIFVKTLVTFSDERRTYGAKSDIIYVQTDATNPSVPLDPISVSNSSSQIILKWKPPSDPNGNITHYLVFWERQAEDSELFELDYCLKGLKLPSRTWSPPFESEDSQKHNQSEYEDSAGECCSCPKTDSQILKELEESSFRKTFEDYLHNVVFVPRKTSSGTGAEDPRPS
Sequence of Insulin receptor (Homo sapiens) (P06213 763-1382 limits assumed): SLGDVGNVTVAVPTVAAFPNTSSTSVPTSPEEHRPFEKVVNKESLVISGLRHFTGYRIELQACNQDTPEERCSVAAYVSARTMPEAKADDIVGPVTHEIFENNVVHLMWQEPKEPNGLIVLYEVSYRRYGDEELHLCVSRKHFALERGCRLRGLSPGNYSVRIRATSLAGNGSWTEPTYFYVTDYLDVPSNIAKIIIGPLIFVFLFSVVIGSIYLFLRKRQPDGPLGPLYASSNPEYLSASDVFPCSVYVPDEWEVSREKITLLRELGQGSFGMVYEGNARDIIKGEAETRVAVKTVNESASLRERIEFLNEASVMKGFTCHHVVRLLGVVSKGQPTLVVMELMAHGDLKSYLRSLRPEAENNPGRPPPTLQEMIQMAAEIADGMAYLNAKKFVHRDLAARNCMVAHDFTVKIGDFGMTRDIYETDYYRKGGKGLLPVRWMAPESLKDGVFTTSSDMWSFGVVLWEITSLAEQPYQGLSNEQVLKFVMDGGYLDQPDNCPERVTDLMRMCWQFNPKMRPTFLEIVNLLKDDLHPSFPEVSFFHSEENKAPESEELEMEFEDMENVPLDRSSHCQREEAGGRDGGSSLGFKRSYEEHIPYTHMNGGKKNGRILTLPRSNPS
Sequence of Serine/threonine-protein kinase Nek7 (Homo sapiens) (Q8TDX7 whole entry, looked up): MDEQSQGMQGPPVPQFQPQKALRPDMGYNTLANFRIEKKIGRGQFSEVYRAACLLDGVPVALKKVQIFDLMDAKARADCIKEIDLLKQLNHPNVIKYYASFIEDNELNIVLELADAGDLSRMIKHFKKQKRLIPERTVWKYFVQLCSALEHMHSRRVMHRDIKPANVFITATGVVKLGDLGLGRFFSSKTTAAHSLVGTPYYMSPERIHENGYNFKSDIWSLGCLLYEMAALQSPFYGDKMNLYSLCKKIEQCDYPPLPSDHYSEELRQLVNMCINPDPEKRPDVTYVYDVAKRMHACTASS

| Compound | Activity [1] [%] | Activity [2] [%] | Activity [3] [%] | Activity [4] [%] | Activity [5] [%] | Activity [6] [%] | Activity [7] [%] | Activity [8] [%] | Activity [9] [%] | Activity [10] [%] | Activity [11] [%] | Activity [12] [%] | Activity [13] [%] | Activity [14] [%] | Activity [15] [%] | Activity [16] [%] | Activity [17] [%] | Activity [18] [%] | Activity [19] [%] | Activity [20] [%] | also measured |
| --- | --- | --- | --- | --- | --- | --- | --- | --- | --- | --- | --- | --- | --- | --- | --- | --- | --- | --- | --- | --- | --- |
| N=C1NC(=O)/C(=C\c2ccc(-c3cccc([N+](=O)[O-])c3)o2)S1 | 107 | 87 | 98 | 95 | 101 | 81 | 97 | 101 | 82 | 107 | 91 | 100 | 97 | 98 | 101 | 74 | 82 | 93 | 102 | 99 | Activity [21]: 52% |
| C=CCOC(=O)c1cc(-c2ccc(/C=C3/NC(=S)NC3=O)o2)ccc1Cl | 93 | 98 | 96 | 98 | 99 | 89 | 108 | 95 | 95 | 98 | 107 | 100 | 94 | 112 | 96 | 92 | 99 | 106 | 103 | 98 | Activity [21]: 73% |

Source: ChEMBL document CHEMBL4334438, “Discovery of novel glycogen synthase kinase-3α inhibitors: Structure-based virtual screening, preliminary SAR and biological evaluation for treatment of acute myeloid leukemia” (Eur J Med Chem, 2019)
